{"source": "patent US11510903B2", "about": "“Synergic pharmaceutical composition of the active enantiomer (S)-ketorolac and Gabapentin for the treatment of neuropathic pain” (priority 2018, dated 2022)", "key": {"[1]": {"settings": "fold more active; cited from earlier work"}, "[2]": {"experiment": "Relative pharmacological potency of S-Ketorolac tromethamine versus Rac Ketorolac and AA", "settings": "fold more potent"}, "[3]": {"system": "rats (lethal effects vs anti-allodynic effects)", "experiment": "Therapeutic index (DL50/DE50) and safety margin study in rats", "format": "in vivo, rat", "settings": "24 h post-treatment", "description": "As further support for this invention, the therapeutic index study was also performed on rats 24 h post-treatment, which is defined as the quotient of DL50 (24 h)/DE50. From said analysis and calculation, we get that the higher the result, the safer the drug, as this indicates the number of times it is necessary to increase DE50 for it to be turned into DL50 in the population being analyzed.\nIn other words, in a combination of said active ingredients, the CDR (for desired effects and lethal effects) was farther apart, therefore S-Ketorolac is safer in combination, as these variables are much farther apart. […] There is less distance between the CDR (desired effects and lethal effects) of the compound alone, than between the CDR (desired effects and toxic effects) of S-Ketorolac in combination with gabapentin."}, "[4]": {"system": "rats with a chronic constriction injury (neuropathic pain)", "experiment": "Von Frey test (mechanical hyperalgesia, 15 g filament) in rats with chronic constriction injury of the sciatic nerve", "format": "in vivo, rat (male Wistar)", "settings": "oral", "description": "(§1) Said experimental model is based on the unilateral ligature of the sciatic nerve, which produces a chronic constriction injury, (CCI). This experimental model has shown itself to be sensitive to a number of drugs that are used clinically for the symptomatic treatment of neuropathic pain. […] The following observed behaviors are indicative of neuropathic pain: (1) autotomy, the animal injures itself in the denervated leg, (2) allodynia, withdrawal of the leg in the face of harmless stimulus that may be mechanical or cold (acetone), (3) hyperalgesia, violent withdrawal of the leg in the face of a moderate thermal or mechanical stimulus (Von Frey filaments 15 g). These aforementioned parameters have been widely used on pharmacology and the modulation of neuropathic pain. The tests that are most used to determine allodynia and hyperalgesia are: mechanical hyperalgesia with the von Frey filaments, the cold allodynia with acetone, thermal hyperalgesia with the plantar test and mechanical hyperalgesia with the pinprick test.\nMale Wistar rats [Crl:(WI)fBR], with a body weight of 120-140 g at the start of the experimental phase, which weighed 160-180 g when the drugs were administered, were used for the particular study in this invention. The animals were kept in polycarbonate boxes under conditions of controlled temperature and light, with 12-hour cycles of light/dark and ad limitum water and food intake. All the experiments were carried out during the light phase. […]\nThe degree of hyperalgesia and allodynia in the rats submitted to the sciatic nerve surgery was determined by means of the Von Frey test and the acetone test. […]\nThe rats were placed on a metal screen in a box of transparent acrylic where they remained for at least 10 minutes to adapt before the test. The response was determined to a tactile stimulus applied to the plantar surface of the rear right leg using the 15 g von Frey filament. […]"}, "[5]": {"system": "rats with a chronic constriction injury (neuropathic pain)", "experiment": "Acetone test (cold allodynia) in rats with chronic constriction injury of the sciatic nerve", "format": "in vivo, rat (male Wistar)", "settings": "oral", "description": "as §1\nMale Wistar rats [Crl:(WI)fBR], with a body weight of 120-140 g at the start of the experimental phase, which weighed 160-180 g when the drugs were administered, were used for the particular study in this invention. The animals were kept in polycarbonate boxes under conditions of controlled temperature and light, with 12-hour cycles of light/dark and ad limitum water and food intake. All the experiments were carried out during the light phase. The animals were used and managed following the guidelines established in the Ethical Guidelines for Pain Research of the International Association for the Study of Pain, and following a protocol approved by the Local Committee of Ethics for the Management of Laboratory Animals. The number of experimental animals was kept to a minimum (n=6 to 8), and, at the end of the experimental determinations, the animals were sacrificed using carbon dioxide.\nThe model for ICC neuropathic pain described by Bennett and Xie in 1988 was standardized. The rats were anesthetized and the sciatic nerve of the rear right leg was immediately dissected, by means of an incision, dissecting the biceps femoris to locate the part that is most proximal to the trifurcation of the sciatic nerve and apply four loose ligatures with silk thread. At the end of the surgery, the muscle was sutured with absorbable thread and the skin with silk thread. The surgery of the rats falsely operated on (Sham) was done in the same way, however, the sciatic nerve was not tied. This entire procedure was performed under aseptic conditions.\nThe degree of hyperalgesia and allodynia in the rats submitted to the sciatic nerve surgery was determined by means of the Von Frey test and the acetone test. These determinations were made a day before the surgery and, 7 days after the surgery a time-course of 180 minutes was done for both the control (saline) and for the compounds that were administered orally, in the study, both singly and combined, to evidence the hyperalgesia and allodynia that were present. Then a time-course was made of hyperalgesia and allodynia, but now in rats with chronic treatment (1 administration/12 hours), carrying out the determinations of both hyperalgesia and allodynia 30 minutes after the morning administration of the treatments being studied and in the following period: 0, 1, 3, 5 and 7 days (14 administrations in total).\nAt the end of the Von Frey test, the rats were left to rest on the metal screen and after a 5-10 min period, approximately 0.1 mL of acetone was applied to the plantar surface of the rear legs using a syringe with a flexible plastic tip, below the metal grating. The time (seconds) the animal remained with its leg removed from the surface was recorded with a chronometer for 60 s after exposure to the acetone. The response time of the rear right leg was measured and three replications were made at intervals of at least 2 minutes. […]"}, "[6]": {"settings": "cited from earlier work"}, "[7]": {"settings": "31.6 mg/kg gabapentin alone, 1.5 h after administration"}}}
{"smiles": "NC(CO)(CO)CO.O=C(c1ccccc1)c1ccc2n1CC[C@@H]2C(=O)O", "note": "[S-Ketorolac tromethamine, S-(−)-5-Benzoyl-2,3-dihydro-1H-pyrrolizine-1-carboxylic acid of 2-amino-2-(hydroxymethyl)-1,3-propanediol (1:1)]", "values": [{"measurement": "activity relative to the R form", "setting": "[1]", "result": 75, "unit": "times"}, {"measurement": "pharmacological potency relative to AA", "setting": "[2]", "result": 1037, "unit": "times"}, {"measurement": "pharmacological potency relative to Rac Ketorolac", "setting": "[2]", "result": 3.3, "unit": "times"}]}
{"smiles": "O=C(c1ccccc1)c1ccc2n1CC[C@@H]2C(=O)O", "note": "[S-Ketorolac]", "values": [{"measurement": "therapeutic index, DL50 (24 h)/DE50", "setting": "[3]", "result": "18,541"}, {"measurement": "maximal response for anti-hyperalgesic effects", "setting": "[4]; 31.6 mg/kg S-Ketorolac alone, 1 h after administration", "result": "43.33±5.58", "unit": "%"}, {"measurement": "dose up to which the anti-hyperalgesic effect increased with dose", "setting": "[4]; doses 0.0316-100 mg/kg, no further increase above", "result": 3.16, "unit": "mg/kg"}, {"measurement": "anti-allodynic effect", "setting": "[5]; 0.0316 mg/kg S-Ketorolac", "result": "almost no anti-allodynic effects"}, {"measurement": "maximal anti-allodynic response", "setting": "[5]; 0.316 mg/kg S-Ketorolac alone, 30 minutes after administration", "result": "44.00±7.71", "unit": "%"}, {"measurement": "anti-allodynic effect", "setting": "[5]; 1.0 mg/kg S-Ketorolac", "result": "maximum anti-allodynic effect"}]}
{"smiles": "NCC1(CC(=O)O)CCCCC1", "note": "[gabapentin]", "values": [{"measurement": "maximal response for anti-hyperalgesic effects", "setting": "[4]; [7]", "result": "71.67±12.50", "unit": "%"}, {"measurement": "anti-allodynic effect", "setting": "[5]; 3.16 mg/kg gabapentin", "result": "practically does not generate anti-allodynic effects"}, {"measurement": "maximal anti-allodynic response", "setting": "[5]; [7]", "result": "45.40±6.20", "unit": "%"}, {"measurement": "anti-allodynic effect", "setting": "[5]; 31.6 mg/kg gabapentin alone, 3 h after administration", "result": "23.70±6.90", "unit": "%"}, {"measurement": "anti-allodynic effect", "setting": "[5]; 177.8 mg/kg gabapentin", "result": "maximum anti-allodynic effect"}, {"measurement": "time of maximal anti-allodynic response after administration (latency)", "setting": "[5]; gabapentin 31.6 mg/kg alone or with 0.316 mg/kg S-Ketorolac", "result": 1.5, "unit": "h"}, {"measurement": "bioavailability", "setting": "[6]; 4,800 mg/day dose", "result": 27, "unit": "%"}, {"measurement": "metabolism", "setting": "[6]; eliminated by renal excretion", "result": "not appreciably metabolized"}, {"measurement": "binding to plasma proteins", "setting": "[6]; in vivo", "result": 3, "unit": "%"}, {"measurement": "concentration in the cephalospinal liquid as share of the concentration in plasma", "setting": "[6]; patients with epilepsy", "result": "approximately 20%"}]}
